Assay results reported in patent publication US9795602B2, “Polycyclic-carbamoylpyridone compounds and their pharmaceutical use” (Gilead Sciences, Inc., priority 2014, dated 2017).
Where two headings read alike, the source gives them in different places.

Legend:
Type in all cases: cell-based
HIV-IIIb = assay: Antiviral assay in MT4 cells; details: read-out: EC50
How it was run: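 MT4 cells infected with HIV-IIIb (0.004 m.o.i.) or mock-infected, then plated at 2000 cells per well with compound. After 5 days at 37 °C, cell viability read by CellTiter-Glo chemiluminescence.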

MT4 cells = assay: Cytotoxicity (CC50) in MT4 cells, mock-infected; details: 5 days
How it was run: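 Mock-infected MT4 cells (2000/well) exposed to compounds for 5 days at 37 °C; cell viability then read as chemiluminescence from CellTiter-Glo after brief room-temperature lysis.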

PXR (NR1I2) = PXR (NR1I2) (Homo sapiens (Human), UniProt O75469); assay: Human PXR activation assay (luciferase reporter, DPX2 cells); details: human; 15 uM; DPX2 cells; % Emax relative to rifampicin, adjusted for DMSO background; read-out: PXR % inh at 15 uM (adjusted)
Chain of PXR (NR1I2) (O75469 whole entry): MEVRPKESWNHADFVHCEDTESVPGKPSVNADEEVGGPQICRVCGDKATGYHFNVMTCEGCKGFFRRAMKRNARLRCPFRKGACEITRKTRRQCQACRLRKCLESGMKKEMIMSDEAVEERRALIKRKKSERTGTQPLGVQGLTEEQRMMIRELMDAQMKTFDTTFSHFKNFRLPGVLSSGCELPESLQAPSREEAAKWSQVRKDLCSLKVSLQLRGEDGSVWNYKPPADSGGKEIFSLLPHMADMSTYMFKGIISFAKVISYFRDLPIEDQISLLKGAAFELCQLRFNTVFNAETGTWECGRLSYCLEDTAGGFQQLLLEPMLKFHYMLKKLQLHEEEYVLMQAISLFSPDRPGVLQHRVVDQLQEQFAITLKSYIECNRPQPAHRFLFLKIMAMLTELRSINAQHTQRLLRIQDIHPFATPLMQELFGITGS
Description: (§1) Luciferase Reporter Gene Assay.
(§2) A stably transformed tumor cell line (DPX2) was plated on 96-well microtiter plates. […]. The number of viable cells was determined and the reporter gene activity was assessed. […]

OCT2 = OCT2 (Homo sapiens (Human), UniProt O15244); assay: OCT2 inhibition assay (14C-TEA uptake, OCT2-transfected MDCKII cells)
Chain of OCT2 (O15244 whole entry): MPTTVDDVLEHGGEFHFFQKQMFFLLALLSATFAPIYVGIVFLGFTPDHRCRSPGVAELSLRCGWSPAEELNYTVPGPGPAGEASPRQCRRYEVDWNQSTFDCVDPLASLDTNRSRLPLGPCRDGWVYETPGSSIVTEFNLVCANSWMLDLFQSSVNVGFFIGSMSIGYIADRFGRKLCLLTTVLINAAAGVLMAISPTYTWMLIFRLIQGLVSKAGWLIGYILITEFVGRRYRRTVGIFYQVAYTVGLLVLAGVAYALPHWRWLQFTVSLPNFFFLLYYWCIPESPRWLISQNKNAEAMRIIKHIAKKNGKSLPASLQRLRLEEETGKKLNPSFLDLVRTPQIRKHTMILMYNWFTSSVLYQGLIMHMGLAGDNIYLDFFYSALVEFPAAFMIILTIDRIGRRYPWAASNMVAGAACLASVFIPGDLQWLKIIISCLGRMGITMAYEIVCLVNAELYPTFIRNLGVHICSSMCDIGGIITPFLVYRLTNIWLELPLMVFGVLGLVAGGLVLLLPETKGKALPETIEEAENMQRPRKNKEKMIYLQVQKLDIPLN
Description: MDCKII cells were maintained in minimal essential medium (MEM) with 1% Pen/Strep, 10% fetal bovine serum, and 0.25 mg/mL hygromycin B in an incubator set at 37° C., 90% humidity and 5% CO2. 24 hours prior to assay, media containing 5 mM sodium butyrate were added to MDCKII cells in flasks, and cells were grown to 80-90% confluence. On assay day, cells were trypsinized and resuspended in Krebs-Henseleit Buffer (KHB), pH 7.4 at […]. Cells were preincubated for 15 min in assay plate before addition of test compound or substrate.
Test compounds were serially diluted in DMSO and then spiked (2 μL) into in 0.4 mL KHB buffer containing wild-type or OCT2-transfected cells and incubated for 10 minutes. Assay was initiated with the addition of 0.1 mL of 100 μM ^14C-TEA in KHB buffer (20 μM final concentration after mixing). The concentration of TEA is based on the Km. After 10 minutes of incubation, the assay mixture was quenched with addition of 0.5 mL of ice-cold 1×PBS buffer. Samples were then centrifuged at 1000 rpm for 5 min and supernatants were removed. Wash steps were repeated four times with ice-cold PBS. Finally, the cell pellets were lysed with 0.2N NaOH and let sit at room temperature for at least 30 min to ensure complete lysis. Samples were then counted on liquid scintillation counter and dpm counts were used to perform the following calculations. The % inhibition was calculated as follows: % inhibition=[1−{[OCT2]i−[WT]ni}/{[OCT2]ni−[WT]ni}]*100 where, [OCT2]i represents the dpm count in the presence of test compound for either OCT2 cells, […] of test compound for OCT2 cells and [WT]ni represents the dpm count in the absence of test compound for wild type cells, respectively.

human PXR = human PXR (Homo sapiens (Human), UniProt O75469); assay: Human PXR activation assay (luciferase reporter, DPX2 cells); details: 15 uM; DPX2 cells; % Emax relative to rifampicin, adjusted for DMSO background
Chain of human PXR (O75469 whole entry): as the sequence (O75469 whole entry) above
Description: as §1, §2

EC50 (HIV-IIIb; MT4 cells, HIV-IIIb, 5 days) [µM]	inhibition at 24 h, 15 µM (PXR (NR1I2)) [%]	SMILES	CC50 (MT4 cells) [µM]	EC50 (HIV-IIIb) [µM]	IC50 (OCT2) [µM]	PXR % inh at 15 uM (adjusted) (human PXR) [%]
0.00253	65	CN1C(=O)c2c(O)c(=O)c(C(=O)NCc3c(F)cc(F)cc3F)cn2[C@@H]2CCCC[C@@H]21 [Compound 4]	10.5	–	–	–
–	–	O=C(NCc1c(F)cc(F)cc1F)c1cn2c(c(O)c1=O)C(=O)N(CC(F)(F)F)[C@@H]1COCC[C@@H]12 [Compound 32]	57.1	0.0038	10	19
